Values quoted from earlier work, collected in patent publication US5585379A, “Acyclovir antiviral gel composition” (AGIS Industries (1983) Ltd., priority 1992, dated 1996).
Where two headings read alike, the source gives them in different places.

Tests used:
[1] = test system: herpes simplex virus; settings: in vitro and in vivo
[2] = oral
[3] = test system: herpes simplex virus infections

solubility in water (words): low solubility in water | solubility in water (words) (listed as acyclovir): poor water-solubility
Structure (SMILES): Nc1nc2c(ncn2COCCO)c(=O)[nH]1 [Acyclovir, 9-(2-hydroxyethoxymethyl)guanine]
solubility in hydrophobic solvent systems (hydrophobic solvent systems): almost totally insoluble in hydrophobic solvent systems | antiviral activity against herpes simplex virus (words) [1]: active against herpes simplex virus | antiviral activity against herpes simplex virus (words) ([1]; listed as acyclovir): potent antiviral activity against herpes simplex virus | therapeutic effect on vulvar vestibulitis [2]: therapeutic effect on vulvar vestibulitis | efficacy of topical therapy compared to oral or parenteral [3]: lacks efficacy as compared to oral or parenteral administrations
